# Experimental data from ChEMBL document CHEMBL1155111, “Identification of a potent, selective, and orally active leukotriene a4 hydrolase inhibitor with anti-inflammatory activity” (J Med Chem, 2008).
# What was measured:
# [1] = Metabolic stability in dog liver S9 fraction assessed as elimination half life; type: ADME, subcellular, Canis lupus familiaris
# [2] = Clearance in rat at 3 mg/kg, iv; type: ADME, organism-based; set-up: dose 3 mg/kg, route intravenous; settings: in vivo
# [3] = Solubility at pH 7.4; type: physicochemical; settings: buffer
# [4] = Clearance in Beagle dog at 3 mg/kg, iv; type: ADME, organism-based, Canis lupus familiaris; set-up: dose 3 mg/kg, route intravenous; settings: in vivo
# [5] = Half life in rat plasma at 3 mg/kg, iv; type: ADME, organism-based; set-up: dose 3 mg/kg, route intravenous
# [6] = Terminal elimination half life in rat plasma at 30 mg/kg, po; type: ADME, organism-based; set-up: dose 30 mg/kg, route oral
# [7] = Cmax in Beagle dog at 30 mg/kg, po; type: ADME, organism-based, Canis lupus familiaris; set-up: dose 30 mg/kg, route oral; settings: in vivo
# [8] = Bioavailability in rat at 30 mg/kg, po; type: ADME, organism-based; settings: in vivo
# [9] = Tmax in Beagle dog at 30 mg/kg, po; type: ADME, organism-based, Canis lupus familiaris; set-up: dose 30 mg/kg, route oral; settings: in vivo
# [10] = Volume of distribution at steady state in Beagle dog at 3 mg/kg, iv; type: ADME, organism-based, Canis lupus familiaris; set-up: dose 3 mg/kg, route intravenous; settings: in vivo, read-out: Vdss
# [11] = Half life in Beagle dog plasma at 3 mg/kg, iv; type: ADME, organism-based, Canis lupus familiaris; set-up: dose 3 mg/kg, route intravenous
# [12] = Metabolic stability in mouse liver S9 fraction assessed as elimination half life; type: ADME, subcellular
# [13] = Chemical stability assessed as half life of hydrolysis at pH 7.4; type: physicochemical; settings: buffer
# [14] = AUC (0 to infinity) in rat at 30 mg/kg, po; type: ADME, organism-based; set-up: time infinity, dose 30 mg/kg, route oral; settings: plasma
# [15] = Half life in Beagle dog plasma at 30 mg/kg, po; type: ADME, organism-based, Canis lupus familiaris; set-up: dose 30 mg/kg, route oral
# [16] = Volume of distribution at steady state in rat at 3 mg/kg, iv; type: ADME, organism-based; set-up: dose 3 mg/kg, route intravenous; settings: in vivo, read-out: Vdss
# [17] = Metabolic stability in rat liver S9 fraction assessed as elimination half life; type: ADME, subcellular
# [18] = Metabolic stability in human liver microsomes assessed as elimination half life; type: ADME, Microsome
# [19] = Tmax in rat at 30 mg/kg, po; type: ADME, organism-based; set-up: dose 30 mg/kg, route oral; settings: in vivo
# [20] = AUC (0 to infinity) in rat at 3 mg/kg, iv; type: ADME, organism-based; set-up: time infinity, dose 3 mg/kg, route intravenous; settings: plasma
# [21] = AUC (0 to infinity) in Beagle dog at 30 mg/kg, po; type: ADME, organism-based, Canis lupus familiaris; set-up: time infinity, dose 30 mg/kg, route oral; settings: plasma
# [22] = Cmax in rat at 3 mg/kg, iv; type: ADME, organism-based; set-up: dose 3 mg/kg, route intravenous; settings: in vivo
# [23] = Cmax in rat at 30 mg/kg, po; type: ADME, organism-based; set-up: dose 30 mg/kg, route oral; settings: in vivo
# [24] = Bioavailability in Beagle dog at 30 mg/kg, po; type: ADME, organism-based, Canis lupus familiaris; settings: in vivo
# [25] = Chemical stability assessed as half life of hydrolysis at pH 2; type: physicochemical; settings: buffer
# [26] = AUC (0 to infinity) in Beagle dog at 3 mg/kg, iv; type: ADME, organism-based, Canis lupus familiaris; set-up: time infinity, dose 3 mg/kg, route intravenous; settings: plasma
# [27] = Cmax in Beagle dog at 3 mg/kg, iv; type: ADME, organism-based, Canis lupus familiaris; set-up: dose 3 mg/kg, route intravenous; settings: in vivo
# [28] = AUC (0 to infinity) in rat at 2 mg/kg, iv; type: ADME, organism-based; set-up: time infinity, dose 2 mg/kg, route intravenous; settings: plasma
# [29] = Clearance in Beagle dog at 2 mg/kg, iv; type: ADME, organism-based, Canis lupus familiaris; set-up: dose 2 mg/kg, route intravenous; settings: in vivo
# [30] = Clearance in rat at 2 mg/kg, iv; type: ADME, organism-based; set-up: dose 2 mg/kg, route intravenous; settings: in vivo
# [31] = Half life in Beagle dog plasma at 2 mg/kg, iv; type: ADME, organism-based, Canis lupus familiaris; set-up: dose 2 mg/kg, route intravenous
# [32] = Cmax in Beagle dog at 2 mg/kg, iv; type: ADME, organism-based, Canis lupus familiaris; set-up: dose 2 mg/kg, route intravenous; settings: in vivo
# [33] = AUC (0 to infinity) in Beagle dog at 2 mg/kg, iv; type: ADME, organism-based, Canis lupus familiaris; set-up: time infinity, dose 2 mg/kg, route intravenous; settings: plasma
# [34] = Half life in rat plasma at 2 mg/kg, iv; type: ADME, organism-based; set-up: dose 2 mg/kg, route intravenous
# [35] = Tmax in rat at 10 mg/kg, po; type: ADME, organism-based; set-up: dose 10 mg/kg, route oral; settings: in vivo
# [36] = Bioavailability in Beagle dog at 10 mg/kg, po; type: ADME, organism-based, Canis lupus familiaris; settings: in vivo
# [37] = Cmax in rat at 2 mg/kg, iv; type: ADME, organism-based; set-up: dose 2 mg/kg, route intravenous; settings: in vivo
# [38] = Cmax in rat at 10 mg/kg, po; type: ADME, organism-based; set-up: dose 10 mg/kg, route oral; settings: in vivo
# [39] = Volume of distribution at steady state in rat at 2 mg/kg, iv; type: ADME, organism-based; set-up: dose 2 mg/kg, route intravenous; settings: in vivo, read-out: Vdss
# [40] = Volume of distribution at steady state in Beagle dog at 2 mg/kg, iv; type: ADME, organism-based, Canis lupus familiaris; set-up: dose 2 mg/kg, route intravenous; settings: in vivo, read-out: Vdss
# [41] = AUC (0 to infinity) in Beagle dog at 10 mg/kg, po; type: ADME, organism-based, Canis lupus familiaris; set-up: time infinity, dose 10 mg/kg, route oral; settings: plasma
# [42] = Terminal elimination half life in rat plasma at 10 mg/kg, po; type: ADME, organism-based; set-up: dose 10 mg/kg, route oral
# [43] = Bioavailability in rat at 10 mg/kg, po; type: ADME, organism-based; settings: in vivo
# [44] = Cmax in Beagle dog at 10 mg/kg, po; type: ADME, organism-based, Canis lupus familiaris; set-up: dose 10 mg/kg, route oral; settings: in vivo
# [45] = AUC (0 to infinity) in rat at 10 mg/kg, po; type: ADME, organism-based; set-up: time infinity, dose 10 mg/kg, route oral; settings: plasma
# [46] = Tmax in Beagle dog at 10 mg/kg, po; type: ADME, organism-based, Canis lupus familiaris; set-up: dose 10 mg/kg, route oral; settings: in vivo
# [47] = Half life in Beagle dog plasma at 10 mg/kg, po; type: ADME, organism-based, Canis lupus familiaris; set-up: dose 10 mg/kg, route oral
smiles,measurement,setting,value
c1ccc2oc(Oc3ccc(OCCN4CCCCC4)cc3)nc2c1,half-life,[1],0.9 h
same,clearance,[2],9.5 mL/min
same,solubility,[3],160 µg/mL
same,clearance,[4],13 mL/min
same,half-life,[5],2.6 h
same,half-life,[6],5.2 h
same,Cmax,[7],1200 nM
same,bioavailability,[8],31%
same,Tmax,[9],2.3 h
same,Vd,[10],3.2 L/kg
same,half-life,[11],1 h
same,half-life,[12],0.667 h
same,half-life,[13],> 16.7 h
same,AUC(0-inf),[14],15 µM·h
same,half-life,[15],2.3 h
same,Vd,[16],7 L/kg
same,half-life,[17],> 1.67 h
same,half-life,[18],> 1.67 h
same,Tmax,[19],4.6 h
same,AUC(0-inf),[20],4.8 µM·h
same,AUC(0-inf),[21],4.2 µM·h
same,Cmax,[22],3800 nM
same,Cmax,[23],1100 nM
same,bioavailability,[24],11%
same,half-life,[25],1.5 h
same,AUC(0-inf),[26],3.9 µM·h
same,Cmax,[27],4500 nM
O=C(CO)NC1CCN(Cc2ccc(Oc3nc4ccccc4s3)cc2)CC1,AUC(0-inf),[28],10 µM·h
same,clearance,[29],93.3 mL/min
same,clearance,[30],3 mL/min
same,half-life,[31],3.6 h
same,Cmax,[32],2800 nM
same,AUC(0-inf),[33],8 µM·h
same,half-life,[34],3.5 h
same,Tmax,[35],5.3 h
same,bioavailability,[36],150%
same,Cmax,[37],2200 nM
same,Cmax,[38],2200 nM
same,Vd,[39],2.5 L/kg
same,Vd,[40],3.2 L/kg
same,AUC(0-inf),[41],60.3 µM·h
same,half-life,[42],5.6 h
same,bioavailability,[43],65%
same,Cmax,[44],26000 nM
same,AUC(0-inf),[45],33 µM·h
same,Tmax,[46],1 h
same,half-life,[47],6.9 h
